“And” between values parts separate entries of the source, which are not always exact repeats. Equal entries are not always repeated. A value given as a limit tells only on which side of the number the result lay.

Type in all cases: cell-based
One data set concerns OVCAR-3. The experiment in a line: NCI human cancer cell line screen, antiproliferative activity, Ovarian OVCAR-3. To be noted: concentration corresponding to 50% growth inhibition, read-out: cytotoxicity GI50, Ovarian OVCAR-3. How it is done:
(§1) The new synthesized brefeldin A prodrug candidates and analogs were examined for antiproliferative activity against human cancer cell lines in the National Cancer Institute screen, in which the activity of each compound was evaluated with approximately 55 different cancer cell lines of diverse tumor origins.

Another data set relates to HCT-116. Briefly: NCI human cancer cell line screen, antiproliferative activity, Colon HCT-116. To be noted: concentration corresponding to 50% growth inhibition, read-out: cytotoxicity GI50, Colon HCT-116. The procedure:
as §1

Another data set relates to MDA-MB-435. The experiment in a line: NCI human cancer cell line screen, antiproliferative activity, Breast MDA-MB-435. To be noted: concentration corresponding to 50% growth inhibition, read-out: cytotoxicity GI50, Breast MDA-MB-435. How it is done: as §1
The test system of another data set is DU-145. The experiment in a line: NCI human cancer cell line screen, antiproliferative activity, Prostate DU-145. To be noted: concentration corresponding to 50% growth inhibition, read-out: cytotoxicity GI50, Prostate DU-145. How it is done:
as §1

A further data set relates to SF-539. The experiment in a line: NCI human cancer cell line screen, antiproliferative activity, CNS SF-539. The following applies: concentration corresponding to 50% growth inhibition, read-out: cytotoxicity GI50, CNS SF-539. The procedure:
as §1

The next data set relates to HOP-62. Briefly: NCI human cancer cell line screen, antiproliferative activity, Lung HOP-62. The following applies: concentration corresponding to 50% growth inhibition, read-out: cytotoxicity GI50, Lung HOP-62. The procedure: as §1
The next data set has as its system SN12C. Briefly: NCI human cancer cell line screen, antiproliferative activity, Renal SN12C. The following applies: concentration corresponding to 50% growth inhibition, read-out: cytotoxicity GI50, Renal SN12C. How it is done:
as §1

The test system of data set [1] is all human cancer cell lines successfully tested. The experiment in a line: NCI screen, mean graph midpoint over approximately 55 cancer cell lines. To be noted: average GI50 for all cell lines tested (approximately 55); test range 10^-4 to 10^-8 molar. The procedure:
as §1

The test system of a further data set is UACC-62. Briefly: NCI human cancer cell line screen, antiproliferative activity, Melanoma UACC-62. The following applies: concentration corresponding to 50% growth inhibition, read-out: cytotoxicity GI50, Melanoma UACC-62. The procedure:
as §1

The GI50 is the concentration that inhibits growth by half. With Brefeldin A 8 0-Glutarate [Compound 23], the 50% growth inhibitory concentration (GI50) in the data set with OVCAR-3 turned out to be 20 µM; in the data set on HCT-116, 21 µM; in the data set with MDA-MB-435, 11 µM; in the data set with DU-145, 30 µM; in the data set on SF-539 it was 22 µM; in the data set with HOP-62 it was 33 µM. In addition, the GI50 with SN12C worked out at 32 µM. Further, the “MGM (mean graph midpoint for growth inhibition)” value in [1] is 13 µM.
Consider `COC(=O)CSC1CC(=O)OC(C)CCCC=CC2CC(O)CC2C1O` [Compound 7, 2,3-Dihydro-(3R)-(methoxycarbonylmethylthiol)brefeldin A], for which the GI50 with OVCAR-3 amounted to 27 µM; in the data set with HCT-116, 19 µM; in the data set on MDA-MB-435 it was 30 µM; in the data set with DU-145, 30 µM; in the data set on SF-539, 24 µM; in the data set with HOP-62 it was 28 µM. For the same compound, the GI50 in the data set with SN12C stood at 32 µM. Besides, the “MGM (mean graph midpoint for growth inhibition)” value in data set [1] came to 17 µM.
For `CC1CCCC=CC2CC(O)CC2C(O)C(O)C(O)C(=O)O1` (stereo not shown) [Compound 26, 2,3-Dihydro-2,3-dihydroxybrefeldin A], the GI50 in the data set with OVCAR-3 was determined as 2.4 µM; with MDA-MB-435 it was 3.8 µM; in the data set with DU-145, 6.7 µM; with SF-539, 0.68 µM; in the data set on HOP-62, 5 µM; with SN12C, 2.7 µM. The GI50 with UACC-62 amounted to 1.6 µM. The “MGM (mean graph midpoint for growth inhibition)” value in data set [1] is 3.0 µM and 2.3 µM.
For the compound `COC(=O)CS(=O)(=O)[C@@H]1CC(=O)OC(C)CCCC=CC2CC(O)CC2C1O` (stereo partly drawn) [Compound 27, 2,3-Dihydro(3R)-(methoxycarbonylmethylsulfonyl)brefeldin A], the GI50 was found to be 3.2 µM with OVCAR-3; 3.7 µM with HCT-116; 5.5 µM with MDA-MB-435; 6 µM in the data set on DU-145; 5.1 µM with HOP-62; 5 µM with UACC-62. The “MGM (mean graph midpoint for growth inhibition)” value in [1] is 3.5 µM.
On to `CC1CCCC=CC2CC(OC(=O)CCCC(=O)O)CC2C(OC(=O)CCCC(=O)O)C=CC(=O)O1` (stereo not shown) [Compound 25, Brefeldin A Diglutarate], for which the GI50 in the data set on OVCAR-3, with HCT-116, in the data set on MDA-MB-435, in the data set on DU-145, with SF-539 and in the data set with HOP-62 was over 100 µM throughout. In addition, the GI50 in the data set with SN12C and in the data set on UACC-62 was over 100 µM each time. Moreover, the “MGM (mean graph midpoint for growth inhibition)” value in [1] stood at 98 µM.
On to `C[C@H]1CCC/C=C/[C@@H]2C[C@H](O)C[C@H]2[C@@H](O)[C@H]([S+]([O-])CCN(C)C)CC(=O)O1` (stereo partly drawn) [Compound 20, 2,3-Dihydro-(3R)-[21-N,N-(dimethylamino)ethylsulfinyl]brefeldin A], for which the GI50 in the data set with OVCAR-3 turned out to be 0.14 µM; in the data set on HCT-116 it was 0.28 µM; with MDA-MB-435, 0.41 µM; with DU-145, 0.48 µM; with SF-539 it was 0.3 µM; in the data set with HOP-62, 0.35 µM. Moreover, the values for the 50% growth inhibitory concentration (GI50) in the data set with SN12C and with UACC-62 were 0.15 µM and 0.071 µM, respectively. Further, in [1], the “MGM (mean graph midpoint for growth inhibition)” value amounted to 0.20 µM.
On to Brefeldin A 8 0-Succinate [Compound 22], for which the “MGM (mean graph midpoint for growth inhibition)” value in data set [1] was determined as 2.5 µM.
`CC1CCCC=CC2CC(O)CC2C(O)[C@H](Sc2ccc(O)cc2)CC(=O)O1` (stereo partly drawn) [Compound 3, 2,3-Dihydro-(3R)-(4′-hydroxyphenylthio)brefeldin A]: the 50% growth inhibitory concentration (GI50) in the data set on OVCAR-3 was 2.4 µM; in the data set with HCT-116 it was 2.5 µM; in the data set on DU-145, 6.3 µM; with SF-539 it was 5.1 µM; in the data set with HOP-62, 3.2 µM; in the data set with SN12C, 4.4 µM. For the same compound, the GI50 in the data set on UACC-62 worked out at 4.8 µM. Further, the “MGM (mean graph midpoint for growth inhibition)” value in data set [1] came out at 3.2 µM.
`CC1CCCC=CC2CC(O)CC2C(O)C(SCCN)CC(=O)O1` [Compound 9, 2,3-Dihydro-(3R)-(2′)-aminoethylthio)brefeldin A]: the GI50 in the data set with OVCAR-3 came to 2.2 µM; in the data set with HCT-116 it was 3.5 µM; in the data set on SF-539, 4.9 µM; with HOP-62 it was 3.9 µM; in the data set with UACC-62 it was 2.7 µM. In addition, in data set [1], the “MGM (mean graph midpoint for growth inhibition)” value amounted to 2.5 µM.
